Where “and” joins values, the source holds several entries; their conditions need not be identical. Equal values may be shown once.

This note sets out measurements from article PMC6588697, “Lugdunin amplifies innate immune responses in the skin in synergy with host- and microbiota-derived factors” (Nature Communications, 2019).

This experiment relates to mouse skin. Put plainly: Immune cell composition of mouse skin after epicutaneous treatment (flow cytometry). The conditions noted are these: for percentage of monocytes (Ly6C+Ly6G−) of CD11b+CD45+ live cells / percentage of neutrophils (Ly6C+Ly6G+) of CD11b+CD45+ live cells: Fig 3d. The class given is in vivo, C57BL/6 WT, MyD88-ko, 5xTLR-ko mice. The protocol: Fig. 3 Epicutaneous lugdunin recruits phagocytic cells. a Schematic overview of the mouse experiments: 6–8-week-old female C5BL/6 wild-type (WT), MyD88-ko, or 5xTLR-ko mice were epicutaneously treated with 1.5 µg lugdunin or phosphate-buffered saline (PBS) as a control. After 24 h, mice were euthanized, immune cells were isolated from treated skin areas, and immune cell composition was analyzed by flow cytometry. b Shown is the mean percentage of CD45+ live cells in mouse skin of 10 C57BL/6 WT mice ± s.e.m. One mouse is represented as two dots analyzed by two different stainings. c Pie charts show the mean percentage of the different immune cell subsets in the skin of 10 WT mice after 24 h of PBS or lugdunin treatment. d Shown are representative flow cytometry data (left panel) and the mean percentage of neutrophils (Ly6C+Ly6G+) and monocytes (Ly6C+Ly6G−) pregated on CD11b+CD45+ live cells (see Supplementary Fig. 3a, f for the gating strategy) in mouse skin ± s.e.m. One dot represents one mouse. *P < 0.05. e Representative myeloperoxidase (MPO)-stained paraffin-embedded mouse skin sections. Scale bar, 100 µM. Source data are provided as a Source Data file TEXT PRINTED IN THE PICTURE: (c) PBS: NK cells: 21%; B cells: 0%; T cells: 10%; Dendritic cells: 8%; CD11b+ cells: 43%; Others: 18%; Macrophages: 73%; Monocytes: 15%; Neutrophils: 3%; Others: 9% | (c) Lugdunin: NK cells: 18%; B cells: 0%; T cells: 11%; Dendritic cells: 10%; CD11b+ cells: 45%; Others: 16%; Macrophages: 64%; Monocytes: 21%; Neutrophils: 6%; Others: 9% | (d) PBS: Monocytes 13,3 (WT); Neutrophils 2,51 (WT); Q4 83,6 (WT); Q3 0,53 (WT); Monocytes 2,34 (MyD88-ko); Neutrophils 0,95 (MyD88-ko); Q4 94,4 (MyD88-ko); Q3 2,27 (MyD88-ko); Monocytes 12,8 (5xTLR-ko); Neutrophils 0,88 (5xTLR-ko); Q4 85,0 (5xTLR-ko); Q3 1,32 (5xTLR-ko) | (d) Lugdunin: Monocytes 17,3 (WT); Neutrophils 11,1 (WT); Q4 70,6 (WT); Q3 0,99 (WT); Monocytes 3,14 (MyD88-ko); Neutrophils 0,54 (MyD88-ko); Q4 94,9 (MyD88-ko); Q3 1,41 (MyD88-ko); Monocytes 12,9 (5xTLR-ko); Neutrophils 1,74 (5xTLR-ko); Q4 84,3 (5xTLR-ko); Q3 1,06 (5xTLR-ko) DOUBTS OF THE COPYIST ABOUT THIS PICTURE: Panel c: the percentages are printed on the pie slices without cell-type names. They were matched to cell types only by the colour legend, so the match is not certain, especially among the blue shades of the lower pies. / PBS is the vehicle control, not a test substance. Its values are given because they are printed under that name. / Panel d: the quadrant numbers are in very small print, so 3, 5, 6, 8 and 9 cannot be told apart with certainty. / PBS WT, Monocytes 13,3: either 3 could be 8 / PBS WT, Neutrophils 2,51: 5 could be 6 / PBS WT, Q4 83,6: 8, 3 and 6 uncertain / PBS WT, Q3 0,53: 5 and 3 uncertain / PBS MyD88-ko, Monocytes 2,34: 3 could be 8 / PBS MyD88-ko, Neutrophils 0,95: 9 and 5 uncertain / PBS MyD88-ko, Q4 94,4: 9 uncertain / PBS 5xTLR-ko, Monocytes 12,8: 8 could be 3 / PBS 5xTLR-ko, Neutrophils 0,88: either 8 uncertain / PBS 5xTLR-ko, Q4 85,0: 8 and 5 uncertain / PBS 5xTLR-ko, Q3 1,32: 3 could be 8 / Lugdunin WT, Monocytes 17,3: 3 could be 8 / Lugdunin WT, Q4 70,6: 6 could be 8 / Lugdunin WT, Q3 0,99: either 9 uncertain / Lugdunin MyD88-ko, Monocytes 3,14: 3 could be 8 / Lugdunin MyD88-ko, Neutrophils 0,54: 5 could be 6 / Lugdunin MyD88-ko, Q4 94,9: either 9 uncertain / Lugdunin 5xTLR-ko, Monocytes 12,9: 9 could be 8 / Lugdunin 5xTLR-ko, Q4 84,3: 8 and 3 uncertain / Lugdunin 5xTLR-ko, Q3 1,06: 6 could be 8
To analyze the immune cell composition and cytokines in the skin, 15 µL containing 1.5 μg lugdunin or PBS as a control were epicutaneously applied for 24 h on the shaved back skin of C57BL/6 WT/MYD88-ko/5xTLR-ko mice. After 24 h, mice were euthanized and relevant skin areas or 4 mm skin punches were removed for immune cell analysis and LEGENDplex^TM (BioLegend) cytokine analysis. […]
For orientation: In flow cytometry, cells or beads pass a laser one at a time.

[1] abbreviates: 5xTLR-ko mice, 1.5 µg lugdunin 24 h, one value per mouse.
Setting [2] is: MyD88-ko mice, 1.5 µg lugdunin 24 h, one value per mouse.
[3] abbreviates: WT mice, 1.5 µg lugdunin 24 h, one value per mouse.

As to Lugdunin, the “percentage of monocytes (Ly6C+Ly6G−) of CD11b+CD45+ live cells” value reads like this: under setting [1], “completely impaired and 20.3% and 17.1% and 9.43% and 21.4% and 16.9% and 6.11% and 12.9%”; under setting [2], “completely impaired and 8.96% and 15.5% and 8.8% and 15.6% and 3.14% and 1.49% and 4.64% and 1.54%”; under setting [3], “significantly enhanced recruitment and 15.8% and 17.3% and 13.3% and 8.16% and 21.5% and 17.9% and 10.5% and 16.5% and 16% and 7.28%”. Further, the “percentage of neutrophils (Ly6C+Ly6G+) of CD11b+CD45+ live cells” value reads like this: under setting [1], “completely impaired and 5.72% and 2.72% and 4.06% and 8.41% and 1.29% and 0.57% and 1.74%”; under setting [2], “completely impaired and 2.26% and 5.17% and 2.81% and 2.01% and 0.54% and 0.23% and 0.5% and 0.44%”; under setting [3], “significantly enhanced recruitment and 2.57% and 6.43% and 4.87% and 2.11% and 8.34% and 11.1% and 2.51% and 1.25% and 4.02% and 5.05%”. Also, the “percentage of CD45+ live cells in mouse skin” value (10 WT mice, 1.5 µg lugdunin epicutaneous 24 h, each mouse two values (two stainings), Fig 3b) was 14.9% and 13.5% and 14.7% and 11.7% and 14.6% and 11.5% and 13.9% and 11.3% and 13.1% and 10.2% and 12.2% and 10.7% and 12.3% and 10.1% and 6.9% and 8.55%. For the same substance, the “NK cells, % NK1.1+ cells of live CD45+ cells” value (WT mice, 1.5 µg lugdunin 24 h, one value per mouse, Supp Fig 3b) was 17.7% and 16.5% and 19.9% and 14.6% and 15.5% and 15.6% and 22.8% and 24.4% and 19.7% and 17.2%. Also, the “B cells, % CD19+ cells of live CD45+ cells” value (WT mice, 1.5 µg lugdunin 24 h, one value per mouse, Supp Fig 3c) was 0% and 0.14% and 0.15% and 0.03% and 0.04% and 0.05% and 0.01% and 0.02%. Further, the “Dendritic cells, % CD11c+ cells of live CD45+ cells” value (WT mice, 1.5 µg lugdunin 24 h, one value per mouse, Supp Fig 3e) was 16.5% and 7.96% and 9.38% and 7.83% and 7.66% and 8.63% and 12.4% and 7.01% and 13.5% and 11.2%. The “CD11b+ cells, % of live CD45+ cells” value (WT mice, 1.5 µg lugdunin 24 h, one value per mouse, Supp Fig 3f) is 25.3% and 49.5% and 44.6% and 53.3% and 45% and 48.5% and 39.3% and 50.8% and 43.6%. Besides, the “Macrophages, % F4/80+ cells of CD11b+ CD45+ live cells” value (WT mice, 1.5 µg lugdunin 24 h, one value per mouse, Supp Fig 3g) is “slightly reduced and 61.4% and 62.3% and 69.6% and 70.5% and 63.1% and 61.1% and 64.2% and 53.1% and 77.9%”. Where the note is “WT mice, 1.5 µg lugdunin 24 h, one value per mouse, Supp Fig 3d”, the “T cells, % CD3+ cells of live CD45+ cells” value was 14.9% and 10.6% and 8% and 7.67% and 10.1% and 12.6% and 9.79% and 11.5% and 8.32% and 13.4%.
